Measurements from patent US10669283B2, “Compound and pharmacologically acceptable salt thereof” (MEIJI SEIKA PHARMA CO., LTD., priority 2016, dated 2020).
pIC50: −log10 of the molar value.

What follows are compounds tested on PDE4 (assay: PDE4 inhibition, scintillation proximity assay (SPA)). Conditions: scintillation proximity assay (SPA); evaluated as classes A, B, C; read-out: PDE4 Inhibitory Activity (concentration for the inhibition rate of 50%).
Type: biochemical
Experimental: The PDE4 inhibitory activity was measured using scintillation proximity assay (SPA) as follows. A sample compound dissolved in dimethyl sulfoxide was diluted 1:10 in reaction buffer solution which contained 50 mM of Tris-HCl with pH 7.4, 8.3 mM of MgCl2, 1.7 mM of EGTA, and 3 mg/mL of bovine serum albumin (BSA). Then, 10 μL of the diluted solution was added in a 96-well assay plate. Moreover, 50 μL of PDE4 diluted 1:375 in the reaction buffer solution was added, and then 40 μL of [2,8-^3H]-adenosine-3′,5′-cyclic phosphate triethylammonium salt diluted 1:1000 in the reaction buffer solution was added. The mixture was allowed to stand at room temperature for 120 minutes. Thereafter, […] of RNA binding YSi-SPA beads suspension containing ZnSO4 was added and the mixture was allowed to stand at room temperature for 15 minutes, followed by adsorption of the enzyme reaction product to the beads. After that, the radioactivity was measured using a liquid scintillation counter for a 96-well plate. The mixture without the enzyme preparation added but only the reaction buffer solution added is a blank, and the mixture with the enzyme preparation added and only dimethyl sulfoxide added instead of the sample solution is a control.
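Wherever PDE4 Inhibitory Activity (concentration for the inhibition rate of 50%) is given: A below 100 nM B 100 to below 1000 nM C 1000 nM or more.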

Structure (SMILES) | pIC50
O=C(NCc1ccccc1)c1cc(-c2nccs2)c2oc(N3CC4CCC(C3)N4)nc2c1 [Example 98, N-benzyl-2-(3,8-diazabicyclo[3.2.1]octan-3-yl)-7-(thiazol-2-yl)benzo[d]oxazole-5-carboxamide] | > 7.00
COC(c1cc(-c2nccs2)c2oc(N3CC4CCC(C3)N4)nc2c1)C(F)(F)F (stereo not drawn) [Example 143, 2-(3,8-Diazabicyclo[3.2.1]octan-3-yl)-7-(thiazol-2-yl)-5-(2,2,2-trifluoro-1-methoxyethyl)benzo[d]oxazole] | > 7.00
FC(F)(F)Oc1c(Cl)cc(-c2ccco2)c2oc(N3CC4CCC(C3)N4)nc12 [Example 6, 2-(3,8-Diazabicyclo[3.2.1]octan-3-yl)-5-chloro-7-(furan-2-yl)-4-(trifluoromethoxy)benzo[d]oxazole] | > 7.00
CC(O)(c1ccc(-c2nccs2)c2oc(N3CC4CCC(C3)N4)nc12)C(F)F (stereo not drawn) [Example 129, 2-(2-(3,8-Diazabicyclo[3.2.1]octan-3-yl)-7-(thiazol-2-yl)benzo[d]oxazol-4-yl)-1,1-difluoropropan-2-ol] | > 7.00
CC(C)(O)C(F)(F)Oc1ccc(-c2cscn2)c2oc(N3CC4CC(C3)N4)nc12 [Example 307, 1-((2-(3,6-Diazabicyclo[3.1.1]heptan-3-yl)-7-(thiazol-4-yl)benzo[d]oxazol-4-yl)oxy)-1,1-difluoro-2-methylpropan-2-ol] | > 7.00
COC(C)(C)c1cc(-c2cscn2)c2oc(N3CC4CCC(C3)N4)nc2c1OC(F)(F)F [Example 298, 2-(3,8-Diazabicyclo[3.2.1]octan-3-yl)-5-(2-methoxypropan-2-yl)-7-(thiazol-4-yl)-4-(trifluoromethoxy)benzo[d]oxazole] | > 7.00
COCCOc1cc(-c2nccs2)c2oc(N3CC4CCC(C3)N4)nc2c1 [Example 69, 2-(3,8-Diazabicyclo[3.2.1]octan-3-yl)-5-(2-methoxyethoxy)-7-(thiazol-2-yl)benzo[d]oxazole] | > 7.00
FC(F)(F)COC(c1ccc(-c2nccs2)c2oc(N3CC4CCC(C3)N4)nc12)C(F)(F)F (stereo not drawn) [Example 221, 2-(3,8-Diazabicyclo[3.2.1]octan-3-yl)-7-(thiazol-2-yl)-4-(2,2,2-trifluoro-1-(2,2,2-trifluoroethoxy)ethyl)benzo[d]oxazole] | > 7.00
COC(C)(C)COC(c1ccc(-c2nccs2)c2oc(N3CC4CC(C3)N4)nc12)C(F)(F)F (stereo not drawn) [Example 281, 2-(3,6-Diazabicyclo[3.1.1]heptan-3-yl)-7-(thiazol-2-yl)-4-(2,2,2-trifluoro-1-(2-methoxy-2-methylpropoxy)ethyl)benzo[d]oxazole] | > 7.00
FC(F)(F)c1c(Cl)cc(-n2cccn2)c2oc(N3CC4CCCC(C3)N4)nc12 [Example 16, 2-(3,9-Diazabicyclo[3.3.1]nonan-3-yl)-5-chloro-7-(1H-pyrazol-1-yl)-4-(trifluoromethyl)benzo[d]oxazole] | > 7.00
CC(C)(O)c1cc(-c2nccs2)c2oc(N3CC4CCC(C3)N4)nc2c1 [Example 172, 2-(2-(3,8-Diazabicyclo[3.2.1]octan-3-yl)-7-(thiazol-2-yl)benzo[d]oxazol-5-yl)propan-2-ol] | > 7.00
NC(=O)c1cc(-c2nccs2)c2oc(N3CC4CCC(C3)N4)nc2c1 [Example 99, 2-(3,8-Diazabicyclo[3.2.1]octan-3-yl)-7-(thiazol-2-yl) benzo[d]oxazole-5-carboxamide] | > 7.00
CC(O)(c1cc(-c2nccs2)c2oc(N3CC4CCCC(C3)N4)nc2c1)C(F)(F)F (stereo not drawn) [Example 161, 2-(2-(3,9-Diazabicyclo[3.3.1]nonan-3-yl)-7-(thiazol-2-yl)benzo[d]oxazol-5-yl)-1,1,1-trifluoropropan-2-ol] | > 7.00
COC(c1cc(-c2nccs2)c2oc(N3CC4CC(C3)N4)nc2c1OC(F)(F)F)C(F)F (stereo not drawn) [Example 208, 2-(3,6-Diazabicyclo[3.1.1]heptan-3-yl)-5-(2,2-difluoro-1-methoxyethyl)-7-(thiazol-2-yl)-4-(trifluoromethoxy) benzo[d]oxazole] | > 7.00
CC(C)(O)COC(c1ccc(-c2nccs2)c2oc(N3CC4CC(C3)N4)nc12)C(F)(F)F (stereo not drawn) [Example 255] | > 7.00
OC(c1cc(-c2nccs2)c2oc(N3CC4CC(C3)N4)nc2c1OC(F)(F)F)C(F)F (stereo not drawn) [Example 207, 1-(2-(3,6-Diazabicyclo[3.1.1]heptan-3-yl)-7-(thiazol-2-yl)-4-(trifluoromethoxy)benzo[d]oxazol-5-yl)-2,2-difluoroethan-1-ol] | > 7.00
FC(F)(F)Oc1c(Cl)cc(-c2nccs2)c2oc(N3CC4COCC(C3)N4)nc12 [Example 4, 7-(5-Chloro-7-(thiazol-2-yl)-4-(trifluoromethoxy)benzo [d]oxazol-2-yl)-3-oxa-7,9-diazabicyclo[3.3.1]nonane] | > 7.00
CC(=O)c1cc(-c2nccs2)c2oc(N3CC4CCC(C3)N4)nc2c1OC(F)(F)F [Example 213, 1-(2-(3,8-Diazabicyclo[3.2.1]octan-3-yl)-7-(thiazol-2-yl)-4-(trifluoromethoxy)benzo[d]oxazol-5-yl)ethan-1-one] | > 7.00
CS(=O)(=O)c1cc(-c2nccs2)c2oc(N3CC4CCCC(C3)N4)nc2c1 [Example 47, 2-(3,9-Diazabicyclo[3.3.1]nonan-3-yl)-5-(methylsulfonyl)-7-(thiazol-2-yl)benzo[d]oxazole] | > 7.00
COC(C)c1cc(-c2nccs2)c2oc(N3CC4CCC(C3)N4)nc2c1C(F)(F)F (stereo not drawn) [Example 184, 2-(3,8-Diazabicyclo[3.2.1]octan-3-yl)-5-(1-methoxyethyl)-7-(thiazol-2-yl)-4-(trifluoromethyl)benzo[d]oxazole] | > 7.00
Clc1ccc(-c2nccs2)c2oc(N3CC4CCC(C3)N4)nc12 [Example 36, 2-(3,8-Diazabicyclo[3.2.1]octan-3-yl)-4-chloro-7-(thiazol-2-yl)benzo[d]oxazole] | > 7.00
c1csc(-c2cc(CN3CCOCC3)cc3nc(N4CC5CCC(C4)N5)oc23)n1 [Example 168, 2-(3,8-Diazabicyclo[3.2.1]octan-3-yl)-5-(morpholinomethyl)-7-(thiazol-2-yl)benzo[d]oxazole] | > 7.00
COc1cc(-c2nccs2)c2oc(N3CC4CCC(C3)N4)nc2c1 [Example 60, 2-(3,8-Diazabicyclo[3.2.1]octan-3-yl)-5-methoxy-7-(thiazol-2-yl)benzo[d]oxazole] | > 7.00
CCOC(=O)c1cc(-n2cccn2)c2oc(N3CC4CC(C3)N4)nc2c1 [Example 91, Ethyl 2-(3,6-diazabicyclo[3.1.1]heptan-3-yl)-7-(1H-pyrazol-1-yl)benzo[d]oxazole-5-carboxylate] | < 6.00

Same assay, conditions: scintillation proximity assay; class symbols; read-out: PDE4 Inhibitory Activity

Structure (SMILES) | pIC50
c1csc(-c2ccc(C3CCC3)c3nc(N4CC5CC(C4)N5)oc23)n1 [Example 414, 2-(3,6-diazabicyclo[3.1.1]heptan-3-yl)-4-cyclobutyl-7-(thiazol-2-yl)benzo[d]oxazole] | > 7.00
O=S1(=O)CCN(c2ccc(-c3nccs3)c3oc(N4CC5CC(C4)N5)nc23)CC1 [Example 398, 4-(2-(3,6-diazabicyclo[3.1.1]heptan-3-yl)-7-(thiazol-2-yl)benzo[d]oxazol-4-yl)thiomorpholine 1,1-dioxide] | > 7.00
CCC(F)(F)Oc1ccc(-c2nccs2)c2oc(N3CC4CC(C3)N4)nc12 [Example 402, 2-(3,6-diazabicyclo [3.1.1]heptan-3-yl)-4-(1,1-difluoro-propoxy)-7-(thiazol-2-yl) benzo[d] oxazole] | > 7.00
